Consider 22 compounds from patent US12310963B2, “Pyrazole derivatives and use thereof” (Tarapeutics Science Inc., priority 2019, dated 2025).

What is called GI50 is the concentration that inhibits growth by half.

The subject of experiment [1] is BaF3-tel-PDGFRβ (stably expressing PDGFRβ kinase). The experiment in a line: Growth of BaF3-tel-PDGFRβ cells, Cell Titer-Glo, 72 h. The class given is cell-based, mouse. From the text:
(§1) In this example, mouse primary B cell BaF3 (purchased from ATCC, U.S.A.) was used. In addition, in this example, mouse BaF3-tel-PDGFRα (stably expressing PDGFRα kinase), mouse BaF3-tel-PDGFRβ (stably expressing PDGFRβ kinase), BaF3-P210 (stably expressing ABL kinase), BaF3-P210-T315I (stably expressing ABL-T315I kinase), BaF3-FL-BRAF-V600E (stably expressing BRAF-V600E kinase), BaF3-TEL-cKIT (stably expressing cKIT kinase), BaF3-TEL-VEGFR2 (stably expressing VEGFR2 kinase), BaF3-TEL-FGFR2 (stably expressing FGFR2 kinase) were also used. The above-mentioned cell trains were all constructed in our laboratory by the method as follows. The sequences of human BCR-ABL (P210 or P210/T315I mutated), full-length BRAF-V600E, cKIT, VEGFR2, FGFR2, PDGFRα, PDGFRβ kinase region were amplified respectively via PCR, and inserted respectively into a MSCV-Puro vector (purchased from Clontech) having a N-terminal TEL fragment and/or NPM fragment and/or TPR fragment, and stably transferred into mouse BaF3 cells by the retroviral method, and the growth factor IL-3 was removed. Eventually, cell lines which are transferred into proteins depending on PDGFRα, PDGFRβ were obtained.
(§2) In this example, solutions of the test compound at different concentrations (0.000508 μM, 0.00152 μM, 0.00457 μM, 0.0137 μM, 0.0411 μM, 0.123 μM, 0.370 μM, 1.11 μM, 3.33 μM, 10 μM) were added to the above cells. The cells were incubated for 72 hours.
A general note: In ATP-based viability assays light output follows the ATP content of the culture.

In experiment [2] the test system is BaF3-tel-PDGFRα (stably expressing PDGFRα kinase). Nature of the experiment: Growth of BaF3-tel-PDGFRα cells, Cell Titer-Glo, 72 h. The class given is cell-based, mouse.
From the text: as §1, §2

Experiment [3] deals with BaF3. Nature of the experiment: Growth of parental BaF3 cells, Cell Titer-Glo, 72 h. The class given is cell-based. The settings on record: Mus musculus.
From the text: as §1, §2

Regarding `Cc1ccc(NC(=O)c2ccnc(C(F)(F)F)c2)cc1-n1cc(-c2cncc(N3CCN(C)CC3)c2)cn1` [Compound 2, N-(4-methyl-3-(4-(5-(4-methylpiperazin-1-yl)pyridin-3-yl)-1H-pyrazol-1-yl)phenyl)-2-(trifluoromethyl)isonicotinamide], the GI50 was found to be 40 nM in experiment [1], 2.8 nM in experiment [2] and 9290 nM in experiment [3].

In the case of `Cc1ccc(NC(=O)c2ccnc(C(F)(F)F)c2)cc1-n1cc(-c2cnccc2OCC2CCOCC2)cn1` [Compound 3, N-(4-methyl-3-(4-(4-((tetrahydropyran-4-yl)methoxy)pyridin-3-yl)-1H-pyrazol-1-yl)phenyl)-2-(trifluoromethyl)isonicotinamide], the figures for the GI50 in experiment [1], in experiment [2] and in experiment [3] were 1.4 nM, 1.4 nM and 6500 nM, respectively.

Take `Cc1ccc(NC(=O)c2cccc(C(F)(F)F)n2)cc1-n1cc(-c2cnccc2OCCN2CCOCC2)cn1` [Compound 4, N-(4-methyl-3-(4-(4-(2-morpholinoethoxy)pyridin-3-yl)-1H-pyrazol-1-yl)phenyl)-6-(trifluoromethyl)picolinamide]: the GI50 is 3.2 nM in experiment [1], below 0.3 nM in experiment [2] and around 10000 nM in experiment [3].

As to `Cc1ccc(NC(=O)c2ccnc(C(F)(F)F)c2)cc1-n1cc(-c2cnccc2OCCN2CCOCC2)cn1` [Compound 5, N-(4-methyl-3-(4-(4-(2-morpholinoethoxy)pyridin-3-yl)-1H-pyrazol-1-yl)phenyl)-2-(trifluoromethyl)isonicotinamide], the 50% growth inhibitory concentration (GI50) in experiment [1] was below 0.3 nM; in experiment [2] it was below 0.3 nM; in experiment [3], around 10000 nM.

As to `Cc1ccc(NC(=O)c2cccc(C(F)(F)F)n2)cc1-n1cc(-c2cnccc2OC2COC2)cn1` [Compound 6, N-(4-methyl-3-(4-(4-(oxetan-3-yloxy)pyridin-3-yl)-1H-pyrazol-1-yl)phenyl)-6-(trifluoromethyl)picolinamide], the GI50 is 1 nM in experiment [1], below 0.3 nM in experiment [2] and above 10000 nM in experiment [3].

Turning to `Cc1ccc(NC(=O)c2ccnc(C(F)(F)F)c2)cc1-n1cc(-c2cncc(OC3COC3)c2)cn1` [Compound 7, N-(4-methyl-3-(4-(5-(oxetan-3-yloxy)pyridin-3-yl)-1H-pyrazol-1-yl)phenyl)-2-(trifluoromethyl)isonicotinamide], the 50% growth inhibitory concentration (GI50) is 1 nM in experiment [1], below 0.3 nM in experiment [2] and above 10000 nM in experiment [3].

For `Cc1ccc(NC(=O)c2cccc(C(F)(F)F)n2)cc1-n1cc(-c2cnccc2OCC2CCCO2)cn1` (stereo not shown) [Compound 8, N-(4-methyl-3-(4-(4-((tetrahydrofuran-2-yl)methoxy)pyridin-3-yl)-1H-pyrazol-1-yl)phenyl)-6-(trifluoromethyl)picolinamide], the concentration for 50% growth inhibition (GI50) in experiment [1] is 1.3 nM; in experiment [3] it was above 10000 nM.

Take `Cc1ccc(NC(=O)c2ccnc(C(F)(F)F)c2)cc1-n1cc(-c2cnccc2OCC2CCCO2)cn1` (stereo not shown) [Compound 9, N-(4-methyl-3-(4-(4-((tetrahydrofuran-2-yl)methoxy)pyridin-3-yl)-1H-pyrazol-1-yl)phenyl)-2-(trifluoromethyl)isonicotinamide]: the 50% growth inhibitory concentration (GI50) is below 0.3 nM in experiment [1] and above 10000 nM in experiment [3].

For `Cc1ccc(NC(=O)c2cccc(C(F)(F)F)n2)cc1-n1cc(-c2cnccc2OCC2CCCC2)cn1` [Compound 10, N-(3-(4-(4-(cyclopentylmethoxy)pyridin-3-yl)-1H-pyrazol-1-yl)-4-methylphenyl)-6-(trifluoromethyl)picolinamide], the results for the GI50 in experiment [1] and in experiment [3] were 62 nM and above 10000 nM, respectively.

As for `Cc1ccc(NC(=O)c2ccnc(C(F)(F)F)c2)cc1-n1cc(-c2cnccc2OCC2CCCC2)cn1` [Compound 11, N-(3-(4-(4-(cyclopentylmethoxy)pyridin-3-yl)-1H-pyrazol-1-yl)-4-methylphenyl)-2-(trifluoromethyl)isonicotinamide], the values for the GI50 in experiment [1] and in experiment [3] were 1.1 nM and above 10000 nM, respectively.

For `Cc1ccc(NC(=O)c2ccnc(C(F)(F)F)c2)cc1-n1cc(-c2cncc(N3CCOCC3)c2)cn1` [Compound 12, N-(4-methyl-3-(4-(5-morpholinopyridin-3-yl)-1H-pyrazol-1-yl)phenyl)-2 (trifluoromethyl)isonicotinamide], the concentration for 50% growth inhibition (GI50) in experiment [1] is 1 nM; in experiment [3], around 10000 nM.

Regarding `Cc1ccc(NC(=O)c2cccc(C(F)(F)F)n2)cc1-n1cc(-c2cnccc2OCC2CCOCC2)cn1` [Compound 13, N-(4-methyl-3-(4-(4-((tetrahydropyran-4-yl)methoxy)pyridin-3-yl)-1H-pyrazol-1-yl)phenyl)-6-(trifluoromethyl)picolinamide], the concentration for 50% growth inhibition (GI50) in experiment [1] is 5.5 nM; in experiment [2] it was 1.6 nM; in experiment [3], above 10000 nM.

Take `Cc1ccc(NC(=O)c2cccc(F)n2)cc1-n1cc(-c2cncc(N3CCN(C)CC3)c2)cn1` [Compound 14, 6-fluoro-N-(4-methyl-3-(4-(5-(4-methylpiperazin-1-yl)pyridin-3-yl)-1H-pyrazol-1-yl)phenyl)picolinamide]: the figures for the GI50 in experiment [1], in experiment [2] and in experiment [3] were below 1.5 nM, below 1.5 nM and 8400 nM, respectively.

`Cc1ccc(NC(=O)c2cc(C(F)(F)F)ccn2)cc1-n1cc(-c2cncc(N3CCN(C)CC3)c2)cn1` [Compound 15, N-(4-methyl-3-(4-(5-(4-methylpiperazin-1-yl)pyridin-3-yl)-1H-pyrazol-1-yl)phenyl)-4-(trifluoromethyl)picolinamide]: the GI50 is below 1.5 nM in experiment [1], below 1.5 nM in experiment [2] and 3900 nM in experiment [3].

Regarding `Cc1ccc(NC(=O)c2cncc(C(F)(F)F)c2)cc1-n1cc(-c2cncc(N3CCN(C)CC3)c2)cn1` [Compound 16, N-(4-methyl-3-(4-(5-(4-methylpiperazin-1-yl)pyridin-3-yl)-1H-pyrazol-1-yl)phenyl)-5-(trifluoromethyl)nicotinamide], the GI50 in experiment [1] is below 1.5 nM; in experiment [2], below 1.5 nM; in experiment [3], above 10000 nM.

For `Cc1ccc(NC(=O)c2cccc(Cl)n2)cc1-n1cc(-c2cncc(N3CCN(C)CC3)c2)cn1` [Compound 17, 6-chloro-N-(4-methyl-3-(4-(5-(4-methylpiperazin-1-yl)pyridin-3-yl)-1H-pyrazol-1-yl)phenyl)picolinamide], the GI50 was below 1.5 nM in experiment [1], below 1.5 nM in experiment [2] and 2800 nM in experiment [3].

Consider `Cc1ccc(NC(=O)c2ccnc(C(F)(F)F)c2)cc1-n1cc(-c2cncc(N3CCN(C)CC3)c2)nn1` [Compound 19, N-(4-methyl-3-(4-(5-(4-methylpiperazin-1-yl)pyridin-3-yl)-1H-1,2,3-triazol-1-yl)phenyl)-2-(trifluoromethyl)isonicotinamide], for which the GI50 in experiment [1] was below 10 nM; in experiment [2] it was below 10 nM; in experiment [3], above 10000 nM.

On to `Cc1ccc(NC(=O)c2cncc(C(F)(F)F)c2)cc1-n1cc(-c2cncc(N3CCN(C)CC3)c2)nn1` [Compound 20, N-(4-methyl-3-(4-(5-(4-methylpiperazin-1-yl)pyridin-3-yl)-1H-1,2,3-triazol-1-yl)phenyl)-5-(trifluoromethyl)nicotinamide], for which the 50% growth inhibitory concentration (GI50) in experiment [1] was below 10 nM; in experiment [2], below 10 nM; in experiment [3] it was 5070 nM.

For `Cc1ccc(NC(=O)c2cc(C(F)(F)F)ccn2)cc1-n1cc(-c2cncc(N3CCN(C)CC3)c2)nn1` [Compound 21, N-(4-methyl-3-(4-(5-(4-methylpiperazin-1-yl)pyridin-3-yl)-1H-1,2,3-triazol-1-yl)phenyl)-4-(trifluoromethyl)picolinamide], the values for the GI50 in experiment [1], in experiment [2] and in experiment [3] were below 10 nM, below 10 nM and 2840 nM, respectively.

As to `Cc1ccc(NC(=O)c2cccc(Cl)n2)cc1-n1cc(-c2cncc(N3CCN(C)CC3)c2)nn1` [Compound 22, 6-chloro-N-(4-methyl-3-(4-(5-(4-methylpiperazin-1-yl)pyridin-3-yl)-1H-1,2,3-triazol-1-yl)phenyl)picolinamide], the results for the GI50 in experiment [1], in experiment [2] and in experiment [3] were below 10 nM, below 10 nM and 960 nM, respectively.

Regarding `CN1CCN(c2cncc(-c3cn(-c4cc(NC(=O)c5cccc(C(F)(F)F)n5)ccc4F)nn3)c2)CC1` [Compound 24, N-(4-fluoro-3-(4-(5-(4-methylpiperazin-1-yl)pyridin-3-yl)-1H-1,2,3-triazol-1-yl)phenyl)-6-(trifluoromethyl)picolinamide], the 50% growth inhibitory concentration (GI50) in experiment [1] was below 10 nM; in experiment [2] it was below 10 nM; in experiment [3], 4760 nM.

Consider `CN1CCN(c2cncc(-c3cn(-c4cc(NC(=O)c5ccnc(C(F)(F)F)c5)ccc4F)nn3)c2)CC1` [Compound 25, N-(4-fluoro-3-(4-(5-(4-methylpiperazin-1-yl)pyridin-3-yl)-1H-1,2,3-triazol-1-yl)phenyl)-2-(trifluoromethyl) isonicotinamide], for which the concentration for 50% growth inhibition (GI50) in experiment [1] was below 10 nM; in experiment [2], below 10 nM; in experiment [3], 5550 nM.
